Data reported in patent US20140343050A1, “PRODRUGS OF D-ISOGLUTAMYL-[D/L]-TRYPTOPHAN” (APTOEX TECHNOLOGIES, INC., priority 2011, published 2014).

Assays:
human hepatocytes = experiment: Biotransformation to Apo805 in human hepatocytes; settings: for Half-life for bioconversion to Apo805 (h), Human hepatocytes: 100 μM prodrug, pooled cryopreserved human hepatocytes
Experimental: LiverPool® cryopreserved human hepatocytes (pooled from 10 male donors) was obtained from Celsis In Vitro Technologies. The hepatocytes were stored in liquid nitrogen until used. Just before the assay, the hepatocytes were quickly thawed at 37° C. and centrifuged at 100×g for 10 min. The media was removed and cells were re-suspended in PBS at a density of 4×10^6 cells/mL. […] After 10, 20, 60, 120 and 240 min of incubation, the reaction was quenched by adding an equal volume of 5% (w/v) TCA. The “time 0” sample was generated by adding TCA before the test compound. After brief vortexing and 10-min incubation on ice, samples were centrifuged (16,000×g, 10 min) and the supernatants were analyzed by HPLC with UV detection.
(§1) HPLC analysis was done using an Agilent 1100 series HPLC system consisting of a programmable multi-channel pump, auto-injector, vacuum degasser and HP detector controlled by Agilent HPLC218 Chem Station Rev.A.09.03 software for data acquisition and analysis. A gradient method was used for the determination of all pro-drugs and their hydrolysis products including Apo805 on an Agilent Eclipse XDB, C18 column (part #963967-902, 150×4.6 mm, 3.5 μm) with the following chromatographic conditions: • Temperature: Ambient • Mobile phase: A=Aqueous phase: 10 mM Tris-HCl, 2 mM EDTA, pH 7.4 B=Organic phase: Acetonitrile • Gradient method: Time: 0 min 5% B, 25 min 50% B, 35 min 80% B, 45 min 5% B, 50 min 5% B. • Mobile phase flow rate: 1.0 mL/min • Injection volume: 50 μL • Data acquisition time: 30 min • Detection wavelength: 280 nm; 4 nm bandwidth, ref. 360 nm, • 4 nm bandwidth The chromatograms at λ=280 nm were analyzed. Peak area (mAU*s) was used for quantitation of pro-drugs, intermediates and thymodepressin (Apo805).

[1] = Stability / bioconversion to Apo805 in human blood; settings: 100 μM prodrug, pooled human blood, 37° C.
Description: as §1
Blood was collected from healthy volunteers, both male and female, in Becton Dickinson ACD Vacutainer™ containing ACD solution A (22.0 g/L trisodium citrate, 8.0 g/L citric acid, 24.5 g/L dextrose). […] After 10-min incubation on ice, samples were centrifuged (16,000×g, 10 min) and the supernatants were analyzed by HPLC.

[2] = Pharmacokinetic study in rats, oral bioavailability (plasma Apo805); assay type: in vivo; settings: male Sprague-Dawley rats, oral 5 mg/kg, in words
Experimental: Groups of five male Sprague-Dawley rats weighing 250 to 300 g were utilized per dosing group. One day prior to dosing, venous and arterial catheters (made of 20 cm long polyurethane coiled tubing, and filled with 100 units/mL heparinized saline) were implanted into the jugular vein and carotid artery of each rat. Rats were fasted overnight prior to oral dosing and fed approximately 2 hours post-dosing. All dosing and blood sampling was performed on fully conscious rats. Tested compounds were administered either by oral gavage as solutions in water, or by intravenous injection (Apo805K1 only) as solution in 0.9% sodium chloride, final pH 7.0, at doses equivalent to 5 mg/kg (per Apo805 content). Blood (0.3 mL) was sampled from each animal from the carotid artery for up to 30 hours post-dosing, each sampling followed by an equivalent naive-blood replacement. […]
A Sciex API 365 LC/MS/MS […] equipped with Ionics EP10+ and HSID, was used, A chiral column (Supelco-Astec CHIROBIOTIC™ TAG), 100×2.1 mm, 5 μm was used at ambient temperature. […] Samples were analysed for the concentration of Apo805 (thymodepressin).
Non-compartmental analysis was performed using WinNonlin 52 software, on individual animal data. Bioavailability was calculated as a ratio of AUCINF—D after oral dosing of test compound to AUCINF—D after IV dosing of Apo805K1. […]

| Structure (SMILES) | Half-life for bioconversion to Apo805 (h), Human hepatocytes (human hepatocytes) [h] | Half-life for bioconversion to Apo805 (h), Human blood [1] [h] | oral bioavailability in rats [2] | other results |
| --- | --- | --- | --- | --- |
| CCOC(=O)[C@@H](Cc1c[nH]c2ccccc12)NC(=O)CC[C@@H](N)C(=O)O [Apo835, H-D-Glu(D-Trp-OEt)-OH, reference compound] | > 2.0 | >24 | – | percent conversion to Apo805 within indicated time, Human hepatocytes (human hepatocytes; in 2 h): 11% |
| CC(C)(C)C(=O)OCOC(=O)[C@@H](Cc1c[nH]c2ccccc12)NC(=O)CC[C@@H](N)C(=O)O [Apo839, H-D-Glu(D-Trp-OCH2O—CO—C(CH3)3)—OH] | – | – | show oral bioavailability | – |
| CN(C)C(=O)COC(=O)[C@@H](Cc1c[nH]c2ccccc12)NC(=O)CC[C@@H](N)C(=O)O [Apo893, H-D-Glu(D-Trp-O—CH2CO—N(CH3)2)—OH] | – | – | – | biotransformation to thymodepressin (Apo805) in human hepatocytes (human hepatocytes; in words): not readily converted to thymodepressin |

Further lines, with some results ahead:

| Half-life for bioconversion to Apo805 (h), Human hepatocytes (human hepatocytes) [h] | Half-life for bioconversion to Apo805 (h), Human blood [1] [h] | oral bioavailability in rats [2] | Structure (SMILES) | other results |
| --- | --- | --- | --- | --- |
| – | – | show oral bioavailability | CC(OC(=O)OC1CCCCC1)OC(=O)[C@@H](Cc1c[nH]c2ccccc12)NC(=O)CC[C@@H](N)C(=O)O (stereo partly drawn) [Apo843, H-D-Glu(D-Trp-O—CH(CH3)—O—CO—O-cyclohexyl)-OH] | – |
| 4.6 | 5.9 | – | N[C@H](CCC(=O)N[C@@H](Cc1c[nH]c2ccccc12)C(=O)O)C(=O)OCCC(F)(F)F [Apo886] | – |
